Data as given in PMC7719179, “Small molecule inhibition of Dynamin-dependent endocytosis targets multiple niche signals and impairs leukemia stem cells” (Nature Communications, 2020).
“And” between values parts separate entries of the source, which are not always exact repeats. Equal values may be shown once. Read-outs that look alike come from different tables or passages of the source.

Legend:
[1] = system: pSTAT5 and pERK in AML01-307 and AML18 patient-derived cells; test: pSTAT5 and pERK in AML01-307 and AML18 cells harvested from treated recipients; type: in vivo, human
Method: Phosphoflow analysis was performed as previously described. Briefly, 2 × 10^6 cells stained for surface markers were subsequently resuspended into PBS 1× + 4% v/v paraformaldehyde and incubated for 10 min at 4 °C for fixation. Fixed cells were washed twice using PBS 1×, then resuspended in pre-chilled at −20 °C Perm Buffer III (BD Pharmingen) and incubated 30 min at 4 °C for permeabilization. Cells were washed twice using PBS 1× and incubated overnight at 4 °C in PBS 1× + 2% v/v fetal calf serum (FCS) with Cell Signalling purified antibodies (Genesearch Pty Ltd, Arundel QLD, Australia) against pSTAT5 (Tyr694; #9359), phospho-p38 MAPK (Thr180/Tyr182; #4511), phospho-p44/42 (Erk1/2; #9102), phospho-S6 (Ser235/236; #4856) and phospho-Akt (Ser473; #9271) or isotype control. For intracellular HES1 detection, cells stained for surface markers were subsequently fixed and permeabilized using the BD Cytofix/Cytoperm^TM Kit and incubated overnight at 4 °C in PBS 1× + 2% v/v FCS with a purified antibody against HES1 (D6PU; #11988, Cell Signalling) or isotype control. After staining with primary antibodies for phosphoflow or intracellular detection, cells were incubated in permeabilization buffer with donkey Alexa Fluor 488-conjugated anti-rabbit secondary antibody (A-21206, lot #1910751, Molecular Probes, Invitrogen) or goat Alexa Fluor 546-conjugated anti-rabbit secondary antibody (A-11035, lot #1904467, Molecular Probes, Invitrogen) for 1 h on ice, and washed twice in PBS 1×. Fluorescence-activated cell sorting (FACS) analysis was performed using LSRII and LSR Fortessa cytometers, following the gating strategies described in Supplementary Fig. 11. Cell sorting was performed with a FACSAria or BD Influx.
Patient-derived xenograft models were established as previously described[97],[98]. […] For transplantation assays, 10^6 splenocytes harvested from successfully engrafted primary human ETP-ALL or T-ALL xenografts were injected into nonobese diabetic/severe combined immunodeficient (NOD.Cg-Prkdc^scid, also termed NOD/SCID) or NOD/SCID/Il2rg^tm1wjl/SzJ (NSG) mice[99]. Moreover, 1.5 × 10^6 cells splenocytes harvested from successfully engrafted patient-derived AML xenografts were injected into nonobese diabetic/severe immunodeficient (NOD.Cg-Rag1^tm1MomIl2rg^tm1wjl/SzJ, also termed NRG) mice expressing human IL-3, human GM-CSF and human SCF from the SGM3 triple transgene (NRGS)[100]. Engraftment into recipients was monitored by FACS analysis of peripheral blood as previously described. […] The in vivo efficacy of Dynole 34-2 was assessed 24 h after the last injection by FACS analysis and immunohistochemistry as described in Supplementary Methods. […]
assessed by flow cytometry. […]

[2] = system: AML01-307 and AML18 patient-derived xenografts; test: Xenograft models of human AML (AML01-307, AML18): leukemic burden in blood, bone marrow, spleen; spleen weight; type: in vivo
Method: Patient-derived xenograft models were established as previously described[97],[98]. All experiments were pre-approved by the Human Research Ethics Committee of the University of New South Wales (UNSW), the UNSW Animal Care and Ethics Committee, the Alfred Health Human Ethics Committee and the AMREP Animal Ethics Committee. For transplantation assays, 10^6 splenocytes harvested from successfully engrafted primary human ETP-ALL or T-ALL xenografts were injected into nonobese diabetic/severe combined immunodeficient (NOD.Cg-Prkdc^scid, also termed NOD/SCID) or NOD/SCID/Il2rg^tm1wjl/SzJ (NSG) mice[99]. Moreover, 1.5 × 10^6 cells splenocytes harvested from successfully engrafted patient-derived AML xenografts were injected into nonobese diabetic/severe immunodeficient (NOD.Cg-Rag1^tm1MomIl2rg^tm1wjl/SzJ, also termed NRG) mice expressing human IL-3, human GM-CSF and human SCF from the SGM3 triple transgene (NRGS)[100]. Engraftment into recipients was monitored by FACS analysis of peripheral blood as previously described. […] Both males and females were used. […] Kaplan–Meier survival and statistical analyses were performed using GraphPad Prism. 6.0 software (GraphPad Software, Inc.).
Spleen and sternum from recipients were collected, incubated at least 24 h in 3.7% neutral buffered formalin (pH 7.4), embedded in paraffin and sectioned at 8 μm onto Superforst-Plus slides. Samples were incubated with an anti-human CD45 antibody (Dako, #M0701) in Dako Autostainer Plus solution, then incubated with a sheep anti-mouse IgG conjugated to HRP and processed as per standard protocols using 3,3’ Diaminobenzidine staining (#ab64238, Abcam) for all immunoblots, as previously described. Samples were imaged and annotated using an Aperio ScanScope and software system (Leica Biosystems). […]

[3] = Relative viability of human CD34+ hematopoietic stem and progenitors, 48 h; type: cell-based; set-up: Relative % viable cells: dose or concentration left out as unconfirmed
Method: (§1) Supplementary Figure 7. Efficacy of Dynole 34-2 for human T-ALL. a, b, Relative viability (%) of patient-derived (a ) ETP- ALL1 and (b) T-ALL 2 xenografts treated with increasing concentration of Dynole 34-2 for 48 hours. Viability was normalized to vehicle-treated cells with experiments performed in duplicates. Human CD34-positive (CD34+) hematopoietic stem and progenitors from healthy donors (N=3) were used as controls. […]

[4] = system: Human CD34-positive (CD34+) hematopoietic stem and progenitors; test: as above; type: cell-based; set-up: Relative % viable cells: dose or concentration left out as unconfirmed; settings: 48 h
Method: as §1

CCCCCCCCNC(=O)C(C#N)=Cc1cn(CCCN(C)C)c2ccccc12 [Dynole 34-2, 2-Cyano-N-octyl-3-(1-(3-dimethylaminopropyl)-1H-indol-3-yl)-acrylamide]
pERK (MFI) in human CD45+ cells ([1]; PDX AML01-307): 2273 MFI and 2265 MFI and 2049 MFI
pSTAT5 (MFI) in human CD45+ cells ([1]; PDX AML01-307): 8952 MFI and 11167 MFI and 9167 MFI
pERK (MFI) in human CD45+ cells ([1]; PDX AML18): 5026 MFI and 5676 MFI and 5643 MFI and 5242 MFI and 5439 MFI and 6959 MFI
pSTAT5 (MFI) in human CD45+ cells ([1]; PDX AML18): 4926 MFI and 5695 MFI and 4653 MFI
Absolute numbers human CD45+ cells ([2]; AML01-307, BM): 749000 and 744000 and 1060000
Absolute numbers human CD45+ cells ([2]; AML01-307, Spleen): 5750000 and 6290000 and 9130000
Proportion of hCD45+ (%) in peripheral blood ([2]; AML01-307, time 1 weeks): 0.7% and 0.2% and 0.4% and 0.1%
Proportion of hCD45+ (%) in peripheral blood ([2]; AML01-307, time 2 weeks): 0.7% and 1.2% and 3.7% and 1% and 1.9% and 0.8%
Proportion of hCD45+ (%) in peripheral blood ([2]; AML01-307, time 3 weeks): 2.8% and 3.7% and 3.9% and 4.4% and 5.1% and 2% and 1.3%
Proportion of hCD45+ (%) in peripheral blood ([2]; AML01-307, time 4 weeks): 5.1% and 5.66% and 9.2% and 9% and 8.38% and 2.7% and 2.566% and 4.8%
Proportion of hCD45+ (%) in peripheral blood ([2]; AML01-307, time 5 weeks): 5.6% and 7.7% and 4.3% and 6.7% and 5.2% and 3.11% and 3.44% and 4.93%
Proportion of hCD45+ (%) in peripheral blood ([2]; AML01-307, time 6 weeks): 17.22%
Proportion of hCD45+ (%) in peripheral blood ([2]; AML01-307, time 8 weeks): 18.86% and 22% and 33.26% and 20.57% and 30.66% and 22.85%
Proportion of hCD45+ (%) in peripheral blood ([2]; AML01-307, time 9 weeks): 36.6% and 52.3% and 29.5% and 40.0%
Absolute numbers human CD45+ cells ([2]; AML18, BM): 436000 and 427000 and 629000 and 665000
Proportion of hCD45+ (%) in peripheral blood ([2]; AML18, time 1 weeks): 0.1% and 0.2% and 0.6% and 0.5% and 0.0% and 0.4%
Proportion of hCD45+ (%) in peripheral blood ([2]; AML18, time 4 weeks): 31.4%
Proportion of hCD45+ (%) in peripheral blood ([2]; AML18, time 7 weeks): 30.6% and 36.7%
Proportion of human CD45 (%) in peripheral blood ([2]; AML18 xenograft recipients): 2% and 5.6% and 2.4% and 1.6% and 4.8% and 5% and 2.26% and 2.3%
Spleen weight ([2]; PDX AML01-307): 0.115 g and 0.137 g and 0.108 g
Spleen weight ([2]; PDX AML18): 0.297 g and 0.287 g and 0.182 g and 0.316 g
viability at 48 h, 0.04 mM ([3]; CD34, dose 0.04 mM, read-out: Relative % viable cells): 99.5%
viability at 48 h, 0.2 mM ([3]; CD34, dose 0.2 mM, read-out: Relative % viable cells): 99.5%
viability at 48 h, 0.04 mM ([3]; Relative % viable cells): 99.4%
viability at 48 h, 0.2 mM ([3]; Relative % viable cells): 98.9%
Relative % viable cells [4]: 98.8%
